Here are results for ten compounds from patent US20200331925A1, “HETEROCYCLIC COMPOUNDS FOR THE TREATMENT OF ABNORMAL CELLULAR PROLIFERATION” (G1 Therapeutics, Inc., priority 2018, published 2020).

Molecules are shown by their SMILES. pIC50: −log10 of the molar value.

Type in all cases: biochemical
The target in one assay is CDK2/Cyclin A (Homo sapiens, UniProt P24941). Kind of assay: CDK2/Cyclin A kinase assay (Nanosyn, Caliper microfluidic). As to conditions: 12-point dose-response, ATP at Km (50 μM), 3 hr. Here is the method: (§1) Selected compounds disclosed herein were tested in kinase assays by Nanosyn (Santa Clara, Calif.) to determine their inhibitory effect on selected CDKs. The assays were performed using microfluidic kinase detection technology (Caliper Assay Platform). The compounds were tested in 12-point dose-response format in singlicate at Kmfor ATP. Phosphoacceptor substrate peptide concentration used was 1 μM for all assays and Staurosporine was used as the reference compound for all assays. Specifics of each assay are as described below: CDK2/Cyclin A: Enzyme concentration: 0.1 nM; ATP concentration: 50 μM; Incubation time: 3 hr.

The target in the next assay is CDK5/p25 (Homo sapiens, UniProt Q00535). In words: CDK5/p25 kinase assay (Nanosyn, Caliper microfluidic). The conditions noted are these: 12-point dose-response, ATP at Km (20 μM), 3 hr. The method, then:
as §1, with “CDK5/p25:” for “CDK2/Cyclin A:”, “20” for “50”

The target in a further assay is CDK1/Cyclin B1 (Homo sapiens, UniProt P06493). Kind of assay: CDK1/Cyclin B1 kinase assay (Nanosyn, Caliper microfluidic). As to conditions: 12-point dose-response, ATP at Km (40 μM), 3 hr. The method, then:
as §1, with “CDK1/Cyclin B1:” for “CDK2/Cyclin A:”, “0.08” for “0.1”, “40” for “50”

A further assay concerns the target CDK4/Cyclin D1 (Homo sapiens, UniProt P11802). Kind of assay: CDK4/Cyclin D1 kinase assay (Nanosyn, Caliper microfluidic). As to conditions: 12-point dose-response, ATP at Km (200 μM), 3 hr. The method, then:
as §1, with “CDK4/Cyclin D1:” for “CDK2/Cyclin A:”, “1” for “0.1”, “200” for “50”

The target in a further assay is CDK3/Cyclin E (Homo sapiens, UniProt Q00526). In words: CDK3/Cyclin E kinase assay (Nanosyn, Caliper microfluidic). The conditions noted are these: 12-point dose-response, ATP at Km (400 μM), 3 hr. Here is the method:
as §1, with “CDK3/Cyclin E:” for “CDK2/Cyclin A:”, “1” for “0.1”, “400” for “50”

For another assay, the target named is CDK5/p35 (Homo sapiens, UniProt Q00535). Kind of assay: CDK5/p35 kinase assay (Nanosyn, Caliper microfluidic). As to conditions: 12-point dose-response, ATP at Km (20 μM), 3 hr. The method, then:
as §1, with “CDK5/p35:” for “CDK2/Cyclin A:”, “0.05” for “0.1”, “20” for “50”

The next assay addresses CDK6/Cyclin D3 (Homo sapiens, UniProt Q00534). Kind of assay: CDK6/Cyclin D3 kinase assay (Nanosyn, Caliper microfluidic). As to conditions: 12-point dose-response, ATP at Km (300 μM), 3 hr. The method, then: as §1, with “CDK6/Cyclin D3:” for “CDK2/Cyclin A:”, “2” for “0.1”, “300” for “50”
Another assay has as its target CDK2/Cyclin E (Homo sapiens, UniProt P24941). In words: CDK2/Cyclin E kinase assay (Nanosyn, Caliper microfluidic). As to conditions: 12-point dose-response, ATP at Km (100 μM), 3 hr. Here is the method:
as §1, with “E:” for “A:”, “0.15” for “0.1”, “100” for “50”

The target of a further assay is CDK9/Cyclin T (Homo sapiens, UniProt P50750). In words: CDK9/Cyclin T kinase assay (Nanosyn, Caliper microfluidic). The conditions noted are these: 12-point dose-response, ATP at Km (10 μM), 17 hr. The method, then:
as §1, with “[…]:” for “CDK2/Cyclin A:”, “5” for “0.1”, “10” for “50”, “17” for “3”

For the next assay, the target named is CDK7/Cyclin H (Homo sapiens, UniProt P50613). Kind of assay: CDK7/Cyclin H kinase assay (Nanosyn, Caliper microfluidic). As to conditions: 12-point dose-response, ATP at Km (50 μM), 17 hr. Here is the method:
as §1, with “CDK7/Cyclin H:” for “CDK2/Cyclin A:”, “10” for “0.1”, “17” for “3”

Sequence of CDK4/Cyclin D1 (P11802 whole entry): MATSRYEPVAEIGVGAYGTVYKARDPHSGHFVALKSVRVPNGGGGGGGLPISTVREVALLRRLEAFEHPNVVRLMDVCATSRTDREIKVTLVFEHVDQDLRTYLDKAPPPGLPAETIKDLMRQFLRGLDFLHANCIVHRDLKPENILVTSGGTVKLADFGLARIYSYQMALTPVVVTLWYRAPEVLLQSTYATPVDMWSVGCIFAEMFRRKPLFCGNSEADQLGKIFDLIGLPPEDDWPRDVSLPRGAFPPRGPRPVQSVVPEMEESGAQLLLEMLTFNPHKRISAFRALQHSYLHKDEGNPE
Sequence of CDK4/Cyclin D1 (P24385 whole entry partner): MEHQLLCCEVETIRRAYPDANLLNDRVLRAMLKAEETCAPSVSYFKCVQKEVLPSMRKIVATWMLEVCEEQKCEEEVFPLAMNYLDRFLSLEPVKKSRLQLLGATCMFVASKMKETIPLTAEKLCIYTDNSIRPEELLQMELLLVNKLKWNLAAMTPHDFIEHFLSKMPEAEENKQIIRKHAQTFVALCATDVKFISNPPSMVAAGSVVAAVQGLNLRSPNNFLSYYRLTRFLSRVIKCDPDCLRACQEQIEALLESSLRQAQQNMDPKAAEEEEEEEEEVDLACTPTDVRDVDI
Sequence of CDK5/p35 (Q00535 whole entry): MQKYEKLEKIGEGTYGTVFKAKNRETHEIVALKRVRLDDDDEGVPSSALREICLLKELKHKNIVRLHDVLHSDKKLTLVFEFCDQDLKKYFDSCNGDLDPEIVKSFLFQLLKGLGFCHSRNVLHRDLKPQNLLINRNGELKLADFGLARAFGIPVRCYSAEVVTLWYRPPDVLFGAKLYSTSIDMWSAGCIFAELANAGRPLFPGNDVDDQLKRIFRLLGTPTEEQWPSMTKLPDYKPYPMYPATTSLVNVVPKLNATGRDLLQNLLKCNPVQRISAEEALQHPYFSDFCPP
Sequence of CDK5/p35 (Q15078 whole entry partner): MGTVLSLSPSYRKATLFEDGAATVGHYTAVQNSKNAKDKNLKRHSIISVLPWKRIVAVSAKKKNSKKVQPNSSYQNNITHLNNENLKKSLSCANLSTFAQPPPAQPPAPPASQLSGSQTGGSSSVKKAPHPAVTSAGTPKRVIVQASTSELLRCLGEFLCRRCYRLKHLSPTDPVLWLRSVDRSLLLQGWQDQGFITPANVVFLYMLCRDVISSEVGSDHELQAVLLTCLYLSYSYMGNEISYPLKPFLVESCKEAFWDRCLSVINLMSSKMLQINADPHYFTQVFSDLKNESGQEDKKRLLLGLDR
Sequence of CDK5/p25 (Q00535 whole entry): as the sequence (Q00535 whole entry) above
Sequence of CDK5/p25 (Q15078 99-307 partner limits assumed): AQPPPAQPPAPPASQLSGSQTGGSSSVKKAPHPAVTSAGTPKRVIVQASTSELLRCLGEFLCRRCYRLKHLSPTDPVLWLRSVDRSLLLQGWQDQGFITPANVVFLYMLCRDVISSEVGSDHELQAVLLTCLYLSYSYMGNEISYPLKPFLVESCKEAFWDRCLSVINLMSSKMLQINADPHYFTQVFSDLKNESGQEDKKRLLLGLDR
Sequence of CDK9/Cyclin T (P50750 whole entry): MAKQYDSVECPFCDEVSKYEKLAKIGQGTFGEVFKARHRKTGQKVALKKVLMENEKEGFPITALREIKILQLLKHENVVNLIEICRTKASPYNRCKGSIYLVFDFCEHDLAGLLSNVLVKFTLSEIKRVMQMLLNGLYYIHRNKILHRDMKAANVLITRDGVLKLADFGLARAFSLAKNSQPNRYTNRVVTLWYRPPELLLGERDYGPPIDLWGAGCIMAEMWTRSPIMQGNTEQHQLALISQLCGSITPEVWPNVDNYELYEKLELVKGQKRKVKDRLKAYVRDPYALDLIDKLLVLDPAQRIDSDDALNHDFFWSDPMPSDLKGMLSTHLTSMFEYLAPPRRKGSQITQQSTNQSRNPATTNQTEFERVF
Sequence of CDK9/Cyclin T (O60563 whole entry partner): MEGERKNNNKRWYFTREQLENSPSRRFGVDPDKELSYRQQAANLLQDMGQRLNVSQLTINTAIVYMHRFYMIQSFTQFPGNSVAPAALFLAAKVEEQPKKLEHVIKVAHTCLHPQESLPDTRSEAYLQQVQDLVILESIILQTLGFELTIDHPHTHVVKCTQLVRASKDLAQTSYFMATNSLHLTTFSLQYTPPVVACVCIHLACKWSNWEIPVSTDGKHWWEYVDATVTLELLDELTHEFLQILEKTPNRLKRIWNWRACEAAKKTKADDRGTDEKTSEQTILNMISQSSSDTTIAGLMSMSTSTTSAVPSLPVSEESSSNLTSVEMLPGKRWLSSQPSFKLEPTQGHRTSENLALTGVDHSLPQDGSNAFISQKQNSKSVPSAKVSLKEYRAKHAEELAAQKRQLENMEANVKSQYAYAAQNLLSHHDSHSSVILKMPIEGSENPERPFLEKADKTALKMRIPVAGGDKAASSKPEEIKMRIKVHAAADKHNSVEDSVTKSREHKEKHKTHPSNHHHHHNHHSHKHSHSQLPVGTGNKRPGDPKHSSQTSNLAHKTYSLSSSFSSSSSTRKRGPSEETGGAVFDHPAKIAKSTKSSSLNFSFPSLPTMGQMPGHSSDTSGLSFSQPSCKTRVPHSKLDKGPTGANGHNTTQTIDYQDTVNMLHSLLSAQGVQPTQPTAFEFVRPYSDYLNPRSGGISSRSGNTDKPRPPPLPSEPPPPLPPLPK
Sequence of CDK7/Cyclin H (P50613 whole entry): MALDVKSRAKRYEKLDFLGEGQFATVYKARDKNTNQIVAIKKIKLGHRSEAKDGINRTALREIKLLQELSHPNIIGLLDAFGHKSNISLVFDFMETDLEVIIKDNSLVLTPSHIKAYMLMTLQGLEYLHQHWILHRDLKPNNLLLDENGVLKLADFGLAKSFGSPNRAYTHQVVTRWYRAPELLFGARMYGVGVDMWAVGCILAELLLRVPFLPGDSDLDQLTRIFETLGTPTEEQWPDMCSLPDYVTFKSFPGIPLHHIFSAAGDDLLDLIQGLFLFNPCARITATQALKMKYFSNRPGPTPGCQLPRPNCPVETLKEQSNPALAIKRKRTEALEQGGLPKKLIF
Sequence of CDK7/Cyclin H (P51946 whole entry partner): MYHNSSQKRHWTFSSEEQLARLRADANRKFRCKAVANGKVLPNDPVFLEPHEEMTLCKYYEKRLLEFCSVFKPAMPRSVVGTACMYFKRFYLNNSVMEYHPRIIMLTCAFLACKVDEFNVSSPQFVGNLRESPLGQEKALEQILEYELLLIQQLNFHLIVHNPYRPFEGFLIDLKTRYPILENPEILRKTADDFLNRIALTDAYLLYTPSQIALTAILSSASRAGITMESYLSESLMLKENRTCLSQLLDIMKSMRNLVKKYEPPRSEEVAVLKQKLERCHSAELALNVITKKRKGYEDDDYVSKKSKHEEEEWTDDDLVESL
Sequence of CDK7/Cyclin H (P51948 whole entry partner): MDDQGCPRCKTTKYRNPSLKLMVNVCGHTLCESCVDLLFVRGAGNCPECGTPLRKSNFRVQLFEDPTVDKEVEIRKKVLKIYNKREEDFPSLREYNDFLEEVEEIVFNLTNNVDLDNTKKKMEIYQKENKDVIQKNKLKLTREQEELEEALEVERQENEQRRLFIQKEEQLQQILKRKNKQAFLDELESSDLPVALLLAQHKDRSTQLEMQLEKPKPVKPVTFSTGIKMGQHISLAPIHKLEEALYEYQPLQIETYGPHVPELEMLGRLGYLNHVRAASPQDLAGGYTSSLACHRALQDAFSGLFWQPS
Sequence of CDK1/Cyclin B1 (P06493 whole entry): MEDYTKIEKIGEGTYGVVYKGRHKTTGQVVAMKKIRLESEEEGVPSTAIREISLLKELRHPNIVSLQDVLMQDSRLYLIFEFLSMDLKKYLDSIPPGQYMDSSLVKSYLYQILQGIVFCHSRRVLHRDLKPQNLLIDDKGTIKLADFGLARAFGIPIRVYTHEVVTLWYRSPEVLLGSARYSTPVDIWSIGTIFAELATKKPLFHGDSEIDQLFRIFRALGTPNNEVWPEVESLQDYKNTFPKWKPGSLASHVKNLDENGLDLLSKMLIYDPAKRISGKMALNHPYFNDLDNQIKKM
Sequence of CDK1/Cyclin B1 (P14635 whole entry partner): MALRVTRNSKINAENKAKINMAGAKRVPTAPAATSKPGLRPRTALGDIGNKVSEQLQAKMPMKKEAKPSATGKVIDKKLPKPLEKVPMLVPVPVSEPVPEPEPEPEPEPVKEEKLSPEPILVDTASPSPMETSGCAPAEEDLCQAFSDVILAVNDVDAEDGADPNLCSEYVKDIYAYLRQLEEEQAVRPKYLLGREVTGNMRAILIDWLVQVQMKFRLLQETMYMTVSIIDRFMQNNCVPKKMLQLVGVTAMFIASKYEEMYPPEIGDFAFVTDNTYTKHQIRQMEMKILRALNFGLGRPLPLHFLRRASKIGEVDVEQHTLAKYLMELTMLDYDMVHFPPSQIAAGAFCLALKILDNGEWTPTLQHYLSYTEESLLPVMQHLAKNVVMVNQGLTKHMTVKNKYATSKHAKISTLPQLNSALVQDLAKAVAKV

A word on the pIC50: it is −log10 of the IC50, conventionally taken in molar units. As to `O=C1NCC2(CCCCC2)n2c1cc1cnc(N[C@H]3C[C@@H](O)CNC3=O)nc12` [Compound 7, 2′-(((3S,5R)-5-hydroxy-2-oxopiperidin-3-yl)amino)-7′,8′-dihydro-6′H-spiro[cyclohexane-1,9′-pyrazino[1′,2′:1,5]pyrrolo[2,3-d]pyrimidin]-6′-one], the pIC50 on CDK2/Cyclin A was 4.19; at CDK5/p25, under 4.00; at CDK1/Cyclin B1, under 4.00; on CDK4/Cyclin D1 (Table 4) it was 6.09; against CDK3/Cyclin E it was under 4.00; on CDK5/p35 it was under 4.00. Moreover, the negative-log IC50 (pIC50) was 5.25 on CDK6/Cyclin D3, under 4.00 against CDK2/Cyclin E, 5.47 against CDK9/Cyclin T (Table 5) and under 4.00 at CDK7/Cyclin H.

As for `O=C1NCC2(CCCCC2)n2c1cc1cnc(N[C@@H]3C[C@@H](O)CNC3=O)nc12` [Compound 8, 2′-(((3R,5R)-5-hydroxy-2-oxopiperidin-3-yl)amino)-7′,8′-dihydro-6′H-spiro[cyclohexane-1,9′-pyrazino[1′,2′:1,5]pyrrolo[2,3-d]pyrimidin]-6′-one], the negative logarithm of the IC50 (pIC50) against CDK2/Cyclin A is 4.96; on CDK5/p25, 4.60; at CDK1/Cyclin B1 it was 4.57; against CDK4/Cyclin D1 (Table 4), 7.00; against CDK3/Cyclin E it was 4.74; against CDK5/p35 it was 4.59. The pIC50 was 6.28 against CDK6/Cyclin D3, 4.62 against CDK2/Cyclin E, 6.36 against CDK9/Cyclin T (Table 5) and 5.14 against CDK7/Cyclin H.

For `O=C1NCC2(CCCCC2)n2c1cc1cnc(N[C@@H]3CCCN[C@@H]3c3ccccc3)nc12` [Compound 9, 2′-(((2R,3R)-2-phenylpiperidin-3-yl)amino)-7′,8′-dihydro-6′H-spiro[cyclohexane-1,9′-pyrazino[1′,2′:1,5]pyrrolo[2,3-d]pyrimidin]-6'-one], the pIC50 against CDK2/Cyclin A is 4.15; on CDK5/p25, under 4.00; on CDK1/Cyclin B1, 4.09; against CDK4/Cyclin D1 (Table 4), 6.92; on CDK3/Cyclin E, under 4.00; on CDK5/p35, under 4.00. The pIC50 against CDK6/Cyclin D3 was 4.92; at CDK2/Cyclin E, under 4.00; against CDK9/Cyclin T (Table 5), 5.80; at CDK7/Cyclin H, 4.70.

On to `O=C1NCC2(CCCCC2)n2c1cc1cnc(N[C@H]3CC[C@H](N4CCC(C(F)(F)F)CC4)CC3)nc12` [Compound 56, 2′-(((1r,4r)-4-(4-(trifluoromethyl)piperidin-1-yl)cyclohexyl)amino)-7′,8′-dihydro-6′H-spiro[cyclohexane-1,9′-pyrazino[1′,2′:1,5]pyrrolo[2,3-d]pyrimidin]-6′-one], for which the pIC50 at CDK4/Cyclin D1 (Table 6) is 7.57; against CDK9/Cyclin T (Table 6), 8.40.

Turning to `CC(C)(C)N1CCN([C@H]2CC[C@H](Nc3ncc4cc5n(c4n3)C3(CCCCC3)CNC5=O)CC2)CC1` [Compound 57, 2′-(((1r,4r)-4-(4-(tert-butyl)piperazin-1-yl)cyclohexyl)amino)-7′,8′-dihydro-6′H-spiro[cyclohexane-1,9′-pyrazino[1′,2′:1,5]pyrrolo[2,3-d]pyrimidin]-6′-one], the negative logarithm of the IC50 (pIC50) against CDK4/Cyclin D1 (Table 6) is 8.30; at CDK9/Cyclin T (Table 6), 8.52.

The compound `O=C1NCC2(CCCCC2)n2c1cc1cnc(N[C@H]3CC[C@H](N4CCN(C5CC5)CC4)CC3)nc12` [Compound 58, 2′-(((1r,4r)-4-(4-cyclopropylpiperazin-1-yl)cyclohexyl)amino)-7′,8′-dihydro-6′H-spiro[cyclohexane-1,9′-pyrazino[1′,2′:1,5]pyrrolo[2,3-d]pyrimidin]-6′-one] had a pIC50 against CDK4/Cyclin D1 (Table 6) of 7.48.

Regarding `O=C1NCC2(CCCCC2)n2c1cc1cnc(N[C@H]3CC[C@H](N4CCN(C5CCCC5)CC4)CC3)nc12` [Compound 59, 2′-(((1r,4r)-4-(4-cyclopentylpiperazin-1-yl)cyclohexyl)amino)-7′,8′-dihydro-6′H-spiro[cyclohexane-1,9′-pyrazino[1′,2′:1,5]pyrrolo[2,3-d]pyrimidin]-6′-one], the values for the pIC50 against CDK4/Cyclin D1 (Table 6) and against CDK9/Cyclin T (Table 6) were 8.40 and 8.70, respectively.

As to `O=C1NCC2(CCCCC2)n2c1cc1cnc(N[C@H]3CC[C@H](N4CCN(c5ccc(F)cc5)CC4)CC3)nc12` [Compound 60, 2′-(((1r,4r)-4-(4-(4-fluorophenyl)piperazin-1-yl)cyclohexyl)amino)-7′,8′-dihydro-6′H-spiro[cyclohexane-1,9′-pyrazino[1′,2′:1,5]pyrrolo[2,3-d]pyrimidin]-6′-one], the pIC50 against CDK4/Cyclin D1 (Table 6) is 7.89; on CDK9/Cyclin T (Table 6), 8.52.

Compound `O=C1NCC2(CCCCC2)n2c1cc1cnc(N[C@H]3CC[C@H](N4CCN(CC5CCCCC5)CC4)CC3)nc12` [Compound 61, 2′-(((1r,4r)-4-(4-(cyclohexylmethyl)piperazin-1-yl)cyclohexyl)amino)-7′,8′-dihydro-6′H-spiro[cyclohexane-1,9′-pyrazino[1′,2′:1,5]pyrrolo[2,3-d]pyrimidin]-6′-one] gave a pIC50 against CDK4/Cyclin D1 (Table 6) of 7.89.

In the case of `O=C1NCC2(CCCCC2)n2c1cc1cnc(N[C@H]3CC[C@H](N4CCN(C(=O)C5CC5)CC4)CC3)nc12` [Compound 62, 2′-(((1r,4r)-4-(4-(cyclopropanecarbonyl)piperazin-1-yl)cyclohexyl)amino)-7′,8′-dihydro-6′H-spiro[cyclohexane-1,9′-pyrazino[1′,2′:1,5]pyrrolo[2,3-d]pyrimidin]-6′-one], the pIC50 against CDK4/Cyclin D1 (Table 6) was 7.70.
